Laboratory results from patent US20060069132A1, “Azolecarboxamide herbicides” (priority 2004, published 2006).

Tests used:
pigweed = test: Test C pre-/postemergence herbicide test; assay type: in vivo, Amaranthus retroflexus; settings: preemergence; for Plant response rating (0 = no effect, 100 = complete control), Pigweed: 125 g ai/ha
Method in brief: (§1)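 Visual ratings on a 0–100 scale (100 = complete control) made versus untreated controls after 12 to 14 greenhouse days. Test chemicals, formulated in surfactant-containing non-phytotoxic solvent, applied preemergence to planted seeds or postemergence to 1- to 4-leaf plants (2 to 18 cm).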

soybean = test: Test C pre-/postemergence herbicide test; assay type: in vivo, Glycine max; settings: preemergence; for Plant response rating (0 = no effect, 100 = complete control), Soybean: 125 g ai/ha
Method in brief: as §1

kochia = test: Test C pre-/postemergence herbicide test; assay type: in vivo, Kochia scoparia; settings: preemergence; for Plant response rating (0 = no effect, 100 = complete control), Kochia: 125 g ai/ha
Method in brief: as §1

goosegrass = test: Test C pre-/postemergence herbicide test; assay type: in vivo, Eleusine indica; settings: preemergence; for Plant response rating (0 = no effect, 100 = complete control), Goosegrass: 125 g ai/ha
Method in brief: as §1

large crabgrass = test: Test C pre-/postemergence herbicide test; assay type: in vivo, Digitaria sanguinalis; settings: preemergence; for Plant response rating (0 = no effect, 100 = complete control), Crabgrass, Large: 125 g ai/ha
Method in brief: as §1

johnsongrass = test: Test C pre-/postemergence herbicide test; assay type: in vivo, Sorghum halepense; settings: preemergence; for Plant response rating (0 = no effect, 100 = complete control), Johnsongrass: 125 g ai/ha
Method in brief: as §1

rice = test: Test C flooded paddy test; assay type: in vivo, Oryza sativa; settings: for Plant response rating, Rice: 500 g ai/ha, visual rating after 12 to 14 days
Method in brief: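 Injury scored visually against controls on a 0 (no effect) to 100 (complete control) scale, 12 to 14 days after treatment in greenhouse. Flooded paddy plants treated at 2-leaf stage; postemergence plants at 1- to 4-leaf stage, 2 to 18 cm tall.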

Surinam grass = test: Test C pre-/postemergence herbicide test; assay type: in vivo, Urochloa decumbens; settings: preemergence; for Plant response rating (0 = no effect, 100 = complete control), Surinam Grass: 125 g ai/ha
Method in brief: as §1

velvetleaf = test: Test C pre-/postemergence herbicide test; assay type: in vivo, Abutilon theophrasti; settings: preemergence; for Plant response rating (0 = no effect, 100 = complete control), Velvetleaf: 125 g ai/ha
Method in brief: as §1

[1] = 500 g ai/ha, scale 0 to 100 (0 no effect, 100 complete control), visual, 12 to 14 days
[2] = 125 g ai/ha, scale 0 to 100 (0 no effect, 100 complete control)
[3] = 250 g ai/ha, scale of 0 to 100, 0 is no effect, 100 is complete control
[4] = scale 0 to 100 (0 no effect, 100 complete control)

| Structure (SMILES) | Plant response rating, Pigweed (pigweed; 62 g ai/ha, scale 0 to 100) | Plant response rating (0 = no effect, 100 = complete control), Pigweed (pigweed) | Plant response rating, Pigweed (pigweed; 250 g ai/ha, scale 0-100) | Plant response rating, Pigweed (pigweed; [1]) | Plant response rating, Soybean (soybean; 62 g ai/ha, scale 0 to 100) | Plant response rating (0 = no effect, 100 = complete control), Soybean (soybean) | Plant response rating, Soybean (soybean; 250 g ai/ha, scale 0-100) | Plant response rating, Soybean (soybean; [1]) | Plant response rating, Kochia (kochia; 62 g ai/ha, scale 0 to 100) | Plant response rating (0 = no effect, 100 = complete control), Kochia (kochia) | Plant response rating, Kochia (kochia; 250 g ai/ha, scale 0-100) | Plant response rating, Kochia (kochia; [1]) | Plant response rating, Goosegrass (goosegrass; 62 g ai/ha, scale 0 to 100) | Plant response rating (0 = no effect, 100 = complete control), Goosegrass (goosegrass) | Plant response rating, Goosegrass (goosegrass; 250 g ai/ha, scale 0-100) | Plant response rating, Goosegrass (goosegrass; [1]) | Plant response rating, Crabgrass, Large (large crabgrass; 62 g ai/ha, scale 0 to 100) | Plant response rating (0 = no effect, 100 = complete control), Crabgrass, Large (large crabgrass) | Plant response rating, Crabgrass, Large (large crabgrass; 250 g ai/ha, scale 0-100) | Plant response rating, Crabgrass, Large (large crabgrass; [1]) | other results |
| --- | --- | --- | --- | --- | --- | --- | --- | --- | --- | --- | --- | --- | --- | --- | --- | --- | --- | --- | --- | --- | --- |
| CCC1=NN(C(C)(C)C)CC1C(=O)Nc1cc(C(=O)N(C)C)ccc1F (racemic) [Compound 343] | 80 | 90 | 100 | 100 | 40 | 80 | 100 | 100 | 90 | 100 | 100 | 100 | 60 | 75 | 80 | 85 | 50 | 80 | 80 | 100 | Plant response rating, Johnsongrass (johnsongrass; 62 g ai/ha, scale 0 to 100): 70; Plant response rating (0 = no effect, 100 = complete control), Johnsongrass (johnsongrass): 80; Plant response rating, Johnsongrass (johnsongrass; 250 g ai/ha, scale 0-100): 100; Plant response rating, Johnsongrass (johnsongrass; [1]): 100; Rice plant response rating (rice; 62 g ai/ha, scale 0 to 100): 20; Rice plant response rating (rice; [2]): 50; Rice plant response rating (rice; [3]): 70; Plant response rating, Rice (rice; [4]): 80; Plant response rating, Surinam Grass (Surinam grass; 62 g ai/ha, scale 0 to 100): 60; Plant response rating (0 = no effect, 100 = complete control), Surinam Grass (Surinam grass): 85; Plant response rating, Surinam Grass (Surinam grass; 250 g ai/ha, scale 0-100): 100; Plant response rating, Surinam Grass (Surinam grass; [1]): 100; Plant response rating, Velvetleaf (velvetleaf; 62 g ai/ha, scale 0 to 100): 60; Plant response rating (0 = no effect, 100 = complete control), Velvetleaf (velvetleaf): 80; Plant response rating, Velvetleaf (velvetleaf; 250 g ai/ha, scale 0-100): 100; Plant response rating, Velvetleaf (velvetleaf; [1]): 100 |
| CCNC(=O)c1cccc(NC(=O)c2nn(C(C)(C)C)nc2C)c1 [Compound 392] | 100 | 100 | 100 | 100 | 5 | 80 | 90 | 95 | 75 | 80 | 100 | 100 | 85 | 95 | 95 | 98 | 98 | 100 | 100 | 100 | Plant response rating, Johnsongrass (johnsongrass; 62 g ai/ha, scale 0 to 100): 85; Plant response rating (0 = no effect, 100 = complete control), Johnsongrass (johnsongrass): 100; Plant response rating, Johnsongrass (johnsongrass; 250 g ai/ha, scale 0-100): 100; Plant response rating, Johnsongrass (johnsongrass; [1]): 100; Rice plant response rating (rice; 62 g ai/ha, scale 0 to 100): 50; Rice plant response rating (rice; [2]): 60; Rice plant response rating (rice; [3]): 75; Plant response rating, Rice (rice; [4]): 75; Plant response rating, Surinam Grass (Surinam grass; 62 g ai/ha, scale 0 to 100): 50; Plant response rating (0 = no effect, 100 = complete control), Surinam Grass (Surinam grass): 85; Plant response rating, Surinam Grass (Surinam grass; 250 g ai/ha, scale 0-100): 85; Plant response rating, Surinam Grass (Surinam grass; [1]): 90; Plant response rating, Velvetleaf (velvetleaf; 62 g ai/ha, scale 0 to 100): 70; Plant response rating (0 = no effect, 100 = complete control), Velvetleaf (velvetleaf): 100; Plant response rating, Velvetleaf (velvetleaf; 250 g ai/ha, scale 0-100): 100; Plant response rating, Velvetleaf (velvetleaf; [1]): 100 |
